Measurements as given in US8551984B2, “Aminopyrimidines as SYK inhibitors” (Merck Sharp & Dohme Corp., priority 2009, dated 2013).

Target: recombinant human SYK (GST-hSYK fusion protein) (Homo sapiens, UniProt P43405)
Test: biochemical
[1] = rhSYK Activity (IC50), recombinant human GST-SYK 5 pM, ATP 25 μM, biotinylated substrate peptide 250 nM, HTRF, 10-dose titration

Description: Homogeneous Time-Resolved Fluorescence (HTRF) Assay for the Recombinant Human SYK Enzyme:

CC(=O)N1CCC(Oc2ccnc(Nc3cc(N)cc(-c4cnc(C5(O)CCC5)s4)c3)n2)CC1 [Example 109-6]
IC50 (rhSYK Activity, Table 109): < 100 nM

Cc1cc(Nc2nccc(C(F)(F)F)n2)cc(-c2cnc(C(=O)N3CCC(O)C3)s2)c1 (stereo not drawn) [Example 87B-17]
IC50 [1]: < 100 nM

Cc1cc(Nc2nccc(C(F)(F)F)n2)cc(-c2cnc(C(=O)N(C)CCC3OCCO3)s2)c1 [Example 87A-17]
IC50 [1]: 100 to 1000 nM

COc1ccnc(Nc2cc(C)cc(-c3cnc(C4(N)CCC4)s3)c2)n1 [Example 62-2]
IC50 (rhSYK Activity, Table 62): < 100 nM

Cc1cc(Nc2nccc(C(F)(F)F)n2)cc(-c2cnc(CNc3cn(C(C)C)nn3)s2)c1 [Example 88A-10]
IC50 [1]: < 100 nM

Cc1cc(Nc2nccc(C(F)(F)F)n2)cc(-c2cnc(C3=CCSCC3)s2)c1 [Example 133, N-{3-[2-(3,6-dihydro-2H-thiopyran-4-yl)-1,3-thiazol-5-yl]-5-methylphenyl}-4-(trifluoromethyl)pyrimidin-2-amine]
IC50 [1]: < 100 nM

Cc1cc(Nc2nccc(C(F)(F)F)n2)cc(-c2cnc(C3(O)CCCN(C(=O)CCc4cn[nH]c4)CC3)s2)c1 (stereo not drawn) [Example 54D-88]
IC50 (rhSYK Activity, Table 54D): < 100 nM

CC(O)(c1ncc(-c2cc(NCC(F)(F)F)cc(Nc3nccc(C(F)(F)F)n3)c2)s1)C(F)(F)F (stereo not drawn) [Example 27-2]
IC50 (rhSYK Activity, Table 27): < 100 nM

Cc1cc(Nc2nccc(C(F)(F)F)n2)cc(-c2cnc(C(=O)NC(C)(CO)CO)s2)c1 [Example 87A-12]
IC50 [1]: < 100 nM

Cc1cc(Nc2nccc(C(F)(F)F)n2)cc(-c2cnc(C3(O)CCN(S(=O)(=O)NC(=O)OC(C)(C)C)C3)s2)c1 (stereo not drawn) [54B-9]
IC50 (rhSYK Activity, Table 54B): < 100 nM

Cc1cc(Nc2nccc(C(F)(F)F)n2)cc(-c2cnc(C3(O)CCN(C(=O)c4c[nH]cn4)CC3)s2)c1 [Example 54A-29]
IC50 (RHSYK Activity, Table 54A): < 100 nM

Cc1cc(Nc2nccc(C(F)(F)F)n2)cc(-c2cnc(C3CCC4(CC3)OCCO4)s2)c1 [N-{3-[2-(1,4-diaxaspiro[4.5]dec-8-yl)-1,3-thiazol-5-yl]-5-methylphenyl}-4-(trifluoromethyl)pyrimidin-2-amine]
IC50 (Syk IC50, HTRF, recombinant human GST-SYK): 297 nM

Cc1cc(Nc2nccc(C(F)(F)F)n2)cc(-c2cnc(C3(O)CCC(NC(=O)Cn4cnnn4)CC3)s2)c1 (stereo not drawn) [Example 54E-13]
IC50 (rhSYK Activity, Table 54E): < 100 nM

Cc1cc(Nc2nccc(OCCO)n2)cc(-c2cnc(C(O)(CO)CO)s2)c1 [Example 158, 2-[5-(3-{[4-(2-hydroxyethoxy)pyrimidin-2-yl]amino}-5-methylphenyl)-1,3-thiazol-2-yl]propane-1,2,3-triol]
IC50 [1]: < 100 nM

COc1ccnc(Nc2cc(C)cc(-c3cnc(C4(O)CCC4)s3)c2)n1 [Example 100A-1]
IC50 [1]: < 100 nM

CS(=O)(=O)C1(c2ncc(-c3cc(Nc4nccc(C(F)(F)F)n4)cc([N+](=O)[O-])c3)s2)CCC1 [Example 74B-3]
IC50 (rhSYK Activity, Table 74B): 1000 to 10000 nM

FC(F)(F)c1ccnc(Nc2cccc(-c3cnc(C4COCCO4)s3)c2)n1 (stereo not drawn) [Example 21-15]
IC50 (rhSYK Activity, Table 21): < 100 nM

Cc1cc(Nc2nccc(C3CCC3)n2)cc(-c2cnc([C@@]3(O)CC[C@H](C(=O)O)C(C)(C)C3)s2)c1 [116A-31]
IC50 (rhSYK Activity, Table 116A): < 100 nM

Cc1cc(Nc2nccc(C(F)(F)F)n2)cc(-c2cnc(CNCCN3CCNC(=O)C3)s2)c1 [Example 88A-30]
IC50 [1]: < 100 nM

COc1nc(Nc2cc(C)cc(-c3cnc(C4(O)CCC(C(=O)OC(C)(C)C)CC4)s3)c2)ncc1F (stereo not drawn) [116A-11]
IC50 (rhSYK Activity, Table 116A): 100 to 1000 nM

Cc1cc(Nc2nccc(OCCc3cnn(C)c3)n2)cc(-c2cnc(C3(O)CCC3)s2)c1 [Example 108A-8]
IC50 (rhSYK Activity, Table 108A): < 100 nM

CC(O)c1ncc(-c2cccc(Nc3nccc(C(F)(F)F)n3)c2)s1 (stereo not drawn) [Example 15-5, 1-[5-(3-{[4-(Trifluoromethyl)pyrimidin-2-yl]amino}phenyl)-1,3-thiazol-2-yl]ethanol]
IC50 (rhSYK Activity, Table 15): < 100 nM

Cc1cc(Nc2nccc(C(F)(F)F)n2)cc(-c2cnc(C3(O)CCCN(C(=O)CO)CC3)s2)c1 (stereo not drawn) [Example 54D-121]
IC50 (rhSYK Activity, Table 54D): < 100 nM

CCOC(=O)C1CCC(O)(c2ncc(-c3cc(C)cc(Nc4nccc(C)n4)c3)s2)C(C)C1 (stereo not drawn) [Example 113A-87]
IC50 (rhSYK Activity, Table 113A): < 100 nM

Cc1cc(Nc2nccc(C(F)(F)F)n2)cc(-c2cnc(C3(O)CCN(c4ncccc4C(=O)O)CC3)s2)c1 [Example 33C-15]
IC50 (rhSYK Activity, Table 33C): < 100 nM

Cc1cc(Nc2nccc(C(F)(F)F)n2)cc(-c2cnc(C3(O)CCC(NC(=O)C4CC(O)C4)CC3)s2)c1 (stereo not drawn) [Example 54E-7]
IC50 (rhSYK Activity, Table 54E): < 100 nM

Cc1cc(Nc2nccc(C(F)(F)F)n2)cc(-c2cnc([C@]3(O)CC[C@@H](NC(=O)c4ncc[nH]4)CC3)s2)c1 [Example 54E-4]
IC50 (rhSYK Activity, Table 54E): < 100 nM

Cc1cc(Nc2nccc(C3CCC3)n2)cc(-c2cnc(C3(O)CCC3)s2)c1 [Example 107, 1-(5-{3-[(4-cyclobutylpyrimidin-2-yl)amino]-5-methylphenyl}-1,3-thiazol-2-yl)cyclobutanol]
IC50 [1]: < 100 nM

CCC(CO)NC(=O)c1ncc(-c2cc(C)cc(Nc3nccc(C(F)(F)F)n3)c2)s1 (stereo not drawn) [Example 87A-10]
IC50 [1]: < 100 nM

Cc1cc(Nc2nccc(C(F)(F)F)n2)cc(-c2cnc(CNCC3(CO)COC3)s2)c1 [Example 88A-46]
IC50 [1]: < 100 nM

Cc1cc(Nc2ncc(F)c(C)n2)cc(-c2cnc([C@]3(O)CC[C@@H](C(=O)O)[C@@H](C)C3)s2)c1 [Example 113A-19]
IC50 (rhSYK Activity, Table 113A): < 100 nM

Cc1cc(Nc2nccc(C(F)(F)F)n2)cc(-c2cnc(C3(O)CCCN(C(=O)c4nc[nH]n4)CC3)s2)c1 (single isomer, unassigned) [Example 54D-124]
IC50 (rhSYK Activity, Table 54D): < 100 nM

Cc1cc(Nc2nccc(C(F)(F)F)n2)cc(-c2cnc(C(C)(O)c3c(C)nn(CCC(=O)O)c3C)s2)c1 (stereo not drawn) [Example 33D-19]
IC50 (rhSYK Activity, Table 33D): < 100 nM

Cc1cc(Nc2nccc(C(F)(F)F)n2)cc(-c2cnc([C@@H](O)[C@H](O)c3ccc(C(=O)O)cc3)s2)c1 (relative stereo) [Example 146, 4-{(Cis)-1,2-dihydroxy-2-[5-(3-methyl-5-{[4-(trifluoromethyl)pyrimidin-2-yl]amino}phenyl)-1,3-thiazol-2-yl]ethyl}benzoic acid]
IC50 [1]: < 100 nM

CCN(CC)CCC(C)(O)c1ncc(-c2cccc(Nc3nccc(C(F)(F)F)n3)c2)s1 (stereo not drawn) [Example 21-8]
IC50 (rhSYK Activity, Table 21): 100 to 1000 nM

COc1nc(Nc2cc(C)cc(-c3cnc(C4(N)COC4)s3)c2)ncc1Cl [Example 61B-10]
IC50 (rhSYK Activity, Table 61B): < 100 nM

Cc1cc(Nc2nccc(C(F)(F)F)n2)cc(-c2cnc(CNc3cncnc3)s2)c1 [Example 88A-1]
IC50 [1]: < 100 nM

Cc1cc(Nc2nccc(C(F)(F)F)n2)cc(-c2cnc(C3(O)CCN(C(=O)c4ccc(O)c(F)c4)CC3)s2)c1 [Example 54A-57]
IC50 (RHSYK Activity, Table 54A): < 100 nM

Cc1cc(Nc2nccc(C(F)(F)F)n2)cc(-c2cnc(C(C)(O)CC(C)(C)C(=O)O)s2)c1 (stereo not drawn) [Example 33D-9]
IC50 (rhSYK Activity, Table 33D): < 100 nM

CCc1ccnc(Nc2cc(C)cc(-c3cnc([C@@]4(O)CC[C@H](C(=O)OC)C(C)(C)C4)s3)c2)n1 [Example 113A-53]
IC50 (rhSYK Activity, Table 113A): < 100 nM

CS(=O)(=O)Cc1ncc(-c2cccc(Nc3nccc(C(F)(F)F)n3)c2)s1 [Example 21-3]
IC50 (rhSYK Activity, Table 21): < 100 nM

Cc1cc(Nc2nccc(C(F)(F)F)n2)cc(-c2cnc(C3CCC(C(N)=O)C(C)(C)C3)s2)c1 (single isomer, unassigned) [154(a), 2,2-Dim ethyl-4-[5-(3-methyl-5-{[4-(trifluoromethyl)pyrimidin-2-yl]amino}phenyl)-1,3-thiazol-2-yl]cyclohexanecarboxamide]
IC50 [1]: < 100 nM

COC(=O)CN1CCC(O)(c2ncc(-c3cc(C)cc(Nc4nccc(C(F)(F)F)n4)c3)s2)CC1 [Example 54A-70]
IC50 (RHSYK Activity, Table 54A): < 100 nM

Cc1cc(Nc2nccc(C(F)(F)F)n2)cc(-c2cnc(C3(O)CCCN(C(=O)c4cc(O)ccc4F)CC3)s2)c1 (stereo not drawn) [Example 54D-104]
IC50 (rhSYK Activity, Table 54D): < 100 nM

Cc1cc(Nc2nccc(OCc3ccncc3)n2)cc(-c2cnc(C3(O)CCC3)s2)c1 [Example 94A-1]
IC50 [1]: < 100 nM

Cc1cc(Nc2nccc(C(C)(C)C)n2)cc(-c2cnc(C3(O)CCC(C(=O)O)C(C)C3)s2)c1 (stereo not drawn) [116A-20]
IC50 (rhSYK Activity, Table 116A): < 100 nM

Cc1cc(Nc2nccc(C(F)(F)F)n2)cc(-c2cnc([C@]3(O)CC[C@@H](NC(=O)c4c[nH]nn4)CC3)s2)c1 [Example 54E-6]
IC50 (rhSYK Activity, Table 54E): < 100 nM

CCOc1ccnc(Nc2cc(C)cc(-c3cnc(C4(O)CCC4)s3)c2)n1 [Example 108A-36]
IC50 (rhSYK Activity, Table 108A): < 100 nM

Cc1cc(Nc2nccc(O[C@H]3CCNC3)n2)cc(-c2cnc(C(C)(O)C(F)(F)F)s2)c1 (stereo partly drawn) [Example 94B-9]
IC50 [1]: < 100 nM

Cc1cc(Nc2nccc(OC3CCC(C(=O)O)CC3)n2)cc(-c2cnc(C3(O)CCC3)s2)c1 (stereo not drawn) [Example 97, 4-{[2-({3-[2-(1-hydroxycyclobutyl)-1,3-thiazol-5-yl]-5-methylphenyl}amino)pyrimidin-4-yl]oxy}cyclohexanecarboxylic acid]
IC50 [1]: < 100 nM

Cc1cc(Nc2nccc(C(F)(F)F)n2)cc(-c2cnc(C(C)(O)CCC(C)(C)C(=O)O)s2)c1 (single isomer, unassigned) [Example 33D-3]
IC50 (rhSYK Activity, Table 33D): < 100 nM

Cc1cc(Nc2nccc(C(F)(F)F)n2)cc(-c2cnc(CNCC(C)(C)O)s2)c1 [Example 88A-33]
IC50 [1]: < 100 nM

Cc1cc(Nc2nccc(C(F)(F)F)n2)cc(-c2cnc(C3(O)CCN(CC(F)(F)F)CC3)s2)c1 [Example 54A-24]
IC50 (RHSYK Activity, Table 54A): < 100 nM

Cc1cc(Nc2nccc(C(F)(F)F)n2)cc(-c2cnc(C(=O)NCCC(=O)O)s2)c1 [Example 87A-35]
IC50 [1]: < 100 nM

COC(=O)C1CCC(c2ncc(-c3cc(C)cc(Nc4nccc(C(F)(F)F)n4)c3)s2)=CC1(C)C (stereo not drawn) [Example 36A-11]
IC50 (rhSYK Activity, Table 36A): 100 to 1000 nM

Cc1cc(Nc2nccc(C(F)(F)F)n2)cc(-c2cnc(C3=CCS(=O)(=O)CC3)s2)c1 [Example 135, N-{3-[2-(1,1-dioxido-3,6-dihydro-2H-thiopyran-4-yl)-1,3-thiazol-5-yl]-5-methylphenyl}-4-(trifluoromethyl)pyrimidin-2-amine]
IC50 [1]: < 100 nM

Cc1cc(Nc2nccc(C(C)C)n2)cc(-c2cnc(C3(O)CCCN(C(=O)C(O)CO)CC3)s2)c1 (stereo not drawn) [Example 54D-8]
IC50 (rhSYK Activity, Table 54D): < 100 nM
